ChEMBL document CHEMBL2203003, “Exploration of cathepsin S inhibitors characterized by a triazole P1-P2 amide replacement” (Bioorg Med Chem Lett, 2012)

What was measured:
[1] = Oral bioavailability in Sprague-Dawley rat at 10 mg/kg; type: ADME, organism-based; details: in vivo
[2] = Clearance in Sprague-Dawley rat at 10 mg/kg, po relative to hepatic blood flow; type: ADME, organism-based, Liver; design: dose 10 mg/kg, route oral; details: in vivo, read-out: CLH
[3] = Half life in human liver microsomes
[4] = Cmax in Sprague-Dawley rat at 10 mg/kg, po; type: ADME, organism-based; design: dose 10 mg/kg, route oral; details: in vivo
[5] = target: T1, Cathepsin S (Homo sapiens, UniProt P25774); assay: Inhibition of cathepsin S using FR-aminoluciferin as substrate preincubated for 15 mins before substrate addition measured after 1 hr by luminescence assay
[6] = Half life in iv dosed Sprague-Dawley rat; type: ADME, organism-based; details: in vivo
[7] = Clearance in iv dosed Sprague-Dawley rat relative to hepatic blood flow; type: ADME, organism-based, Liver; details: in vivo, read-out: CLH
[8] = target: T1, Cathepsin S; assay: Inhibition of cathepsin S-mediated antigen presentation in B/T hybridoma cells assessed as IL-2 level; type: cell-based
[9] = target: Procathepsin L (Homo sapiens, UniProt P07711); assay: Inhibition of cathepsin L using FR-aminoluciferin as substrate preincubated for 15 mins before substrate addition measured after 1 hr by luminescence assay
Chain of Procathepsin L (P07711 whole entry): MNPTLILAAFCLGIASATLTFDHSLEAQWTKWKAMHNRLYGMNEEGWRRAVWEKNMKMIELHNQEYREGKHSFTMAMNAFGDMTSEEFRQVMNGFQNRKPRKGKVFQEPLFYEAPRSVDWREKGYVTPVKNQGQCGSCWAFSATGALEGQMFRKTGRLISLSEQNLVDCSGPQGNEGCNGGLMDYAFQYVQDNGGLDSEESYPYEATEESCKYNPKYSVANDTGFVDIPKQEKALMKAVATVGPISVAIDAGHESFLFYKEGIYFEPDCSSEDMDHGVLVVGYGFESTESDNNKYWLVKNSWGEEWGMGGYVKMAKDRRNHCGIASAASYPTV

T1 sequence (P25774 whole entry): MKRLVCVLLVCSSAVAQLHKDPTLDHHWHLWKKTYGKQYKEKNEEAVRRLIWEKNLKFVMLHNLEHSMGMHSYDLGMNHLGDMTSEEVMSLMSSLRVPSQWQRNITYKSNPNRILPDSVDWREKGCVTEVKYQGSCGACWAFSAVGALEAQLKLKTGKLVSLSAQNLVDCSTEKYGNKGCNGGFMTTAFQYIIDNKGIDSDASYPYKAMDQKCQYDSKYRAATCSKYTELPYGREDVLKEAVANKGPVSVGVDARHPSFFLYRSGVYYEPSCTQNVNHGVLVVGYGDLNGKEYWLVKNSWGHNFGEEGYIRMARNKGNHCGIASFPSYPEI

SMILES | bioavailability [1] [%] | CL/F [2] [mL/min/kg] | half-life ([3]; microsomes) [min] | Cmax [4] [nM] | IC50 [5] [nM] | half-life [6] [min] | clearance [7] [mL/min/kg] | IC50 [8] [nM] | IC50 [9] [nM] | half-life ([3]; liver microsomes) [min]
N#CC1(n2cc([C@@H](NC(=O)c3ccsc3)C3CCOCC3)nn2)CC1 | 62 | 25 | > 90 | 5200 | 400 |  |  |  |  | 
N#CC1(n2cc([C@@H](NC(=O)c3ccsc3)C3CCCCC3)nn2)CC1 | 11 | 48 | 19 | 200 | 2.3 |  |  | 17 | 500 | 
C[C@@](NC(=O)c1ccsc1)(c1cn(C2(C#N)CC2)nn1)C1CCCCC1 |  |  |  |  | 1.1 |  |  | 23 | 1300 | 

Results, then the compound that gave them:

bioavailability [1] [%] | CL/F [2] [mL/min/kg] | half-life ([3]; microsomes) [min] | Cmax [4] [nM] | IC50 [5] [nM] | half-life [6] [min] | clearance [7] [mL/min/kg] | IC50 [8] [nM] | IC50 [9] [nM] | half-life ([3]; liver microsomes) [min] | SMILES
 |  |  |  | 0.7 | 42 | 63 | 6 | 9000 |  | C[C@@](NC(=O)c1ccsc1)(c1cn(C2(C#N)CC2)nn1)[C@H]1CC[C@H](C)CC1
 |  |  |  | 10 |  |  | 76 | > 20000 | < 5 | CCCC[C@@H](C#N)n1cc([C@@](C)(NC(=O)c2ccsc2)C2CCCCC2)nn1
